Reference: ChEMBL document CHEMBL3039007, “Structure-based identification of OATP1B1/3 inhibitors” (Mol Pharmacol, 2013)
Structures can show the parent of a compound that is named as a salt. Residues, ends and D or L forms follow the SMILES beside them. *: point of attachment. Tfa = O=C(C(F)(F)F)*

Key:
[1] = target: T1, Solute carrier organic anion transporter family member 1B1 (Homo sapiens, UniProt Q9Y6L6); conditions: chinese hamster, cho, 10 µM
T1 sequence (Q9Y6L6 whole entry): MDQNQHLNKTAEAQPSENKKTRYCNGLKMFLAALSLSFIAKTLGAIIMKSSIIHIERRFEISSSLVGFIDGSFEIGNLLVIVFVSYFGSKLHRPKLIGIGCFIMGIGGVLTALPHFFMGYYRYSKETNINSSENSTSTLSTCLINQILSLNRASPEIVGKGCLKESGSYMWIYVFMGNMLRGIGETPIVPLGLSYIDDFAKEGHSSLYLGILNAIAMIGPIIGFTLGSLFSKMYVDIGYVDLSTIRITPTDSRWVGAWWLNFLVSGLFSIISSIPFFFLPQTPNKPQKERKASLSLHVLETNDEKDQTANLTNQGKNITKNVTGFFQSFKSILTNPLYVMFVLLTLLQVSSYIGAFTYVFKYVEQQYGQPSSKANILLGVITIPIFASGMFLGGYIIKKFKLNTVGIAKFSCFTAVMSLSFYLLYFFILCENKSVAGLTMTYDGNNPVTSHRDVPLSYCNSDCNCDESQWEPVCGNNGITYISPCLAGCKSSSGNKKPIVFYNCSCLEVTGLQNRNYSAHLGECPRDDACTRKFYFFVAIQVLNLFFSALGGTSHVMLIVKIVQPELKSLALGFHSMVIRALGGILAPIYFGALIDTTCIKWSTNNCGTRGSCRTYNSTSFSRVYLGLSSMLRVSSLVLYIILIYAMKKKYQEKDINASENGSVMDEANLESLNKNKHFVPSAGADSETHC

[2] = target: T2, Solute carrier organic anion transporter family member 1B3 (Homo sapiens, UniProt Q9NPD5); conditions: chinese hamster, cho, 10 µM
T2 sequence (Q9NPD5 whole entry): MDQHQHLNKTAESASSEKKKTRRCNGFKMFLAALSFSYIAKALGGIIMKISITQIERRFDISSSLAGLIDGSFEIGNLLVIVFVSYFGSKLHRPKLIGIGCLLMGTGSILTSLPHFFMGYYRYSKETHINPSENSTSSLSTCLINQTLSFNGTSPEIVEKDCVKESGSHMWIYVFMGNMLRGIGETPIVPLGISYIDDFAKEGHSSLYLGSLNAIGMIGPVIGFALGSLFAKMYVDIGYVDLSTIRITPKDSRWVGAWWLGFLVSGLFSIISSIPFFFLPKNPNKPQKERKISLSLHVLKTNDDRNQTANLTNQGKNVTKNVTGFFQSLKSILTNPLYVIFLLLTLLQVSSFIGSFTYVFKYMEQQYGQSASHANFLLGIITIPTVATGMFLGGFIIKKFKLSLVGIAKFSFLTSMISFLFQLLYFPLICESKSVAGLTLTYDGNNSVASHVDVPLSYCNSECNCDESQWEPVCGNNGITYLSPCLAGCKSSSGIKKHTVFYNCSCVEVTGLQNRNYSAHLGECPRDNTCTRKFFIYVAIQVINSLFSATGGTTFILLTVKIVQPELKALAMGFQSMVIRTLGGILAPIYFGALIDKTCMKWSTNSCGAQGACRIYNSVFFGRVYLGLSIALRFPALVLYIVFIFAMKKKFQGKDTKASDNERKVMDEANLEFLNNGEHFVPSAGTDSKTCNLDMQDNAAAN

In the case of CC(N)C(=O)OC(C)(C)Cc1ccc(Cl)cc1 (stereo not drawn) [ALAPROCLATE], the residual activity [1] is reported as 84.52% and the residual activity [2] is reported as 98.54%.

Work on CCN(CC)CCOC(=O)c1ccc(N)cc1.Cl [PROCAINE HYDROCHLORIDE] yielded a residual activity [1] of 104.1% and a residual activity [2] of 104.2%.

Cc1cccc2c3c(ccc12)C1=C(C(=O)C3=O)[C@@H](C)CO1 [DIHYDROTANSHINONE I] was tested, and the residual activity [1] was 111.4% and the residual activity [2] was 129.1%.

CCCCC(=O)O[C@]1(C(=O)CO)[C@@H](C)C[C@H]2[C@@H]3CCC4=CC(=O)C=C[C@]4(C)[C@@]3(F)[C@@H](O)C[C@@]21C [BETAMETHASONE VALERATE] showed a residual activity [1] of 38.6% and a residual activity [2] of 10.24%.

In the case of CN(C)CC/C=C1/c2ccccc2Sc2ccc(Cl)cc21.Cl [CHLORPROTHIXENE HYDROCHLORIDE], the residual activity [1] is reported as 85.65% and the residual activity [2] is reported as 101.8%.

CCCC(=O)Nc1ccc(OCC(O)CNC(C)C)c(C(C)=O)c1.Cl (stereo not drawn) [ACEBUTOLOL HYDROCHLORIDE] showed a residual activity [1] of 74.42% and a residual activity [2] of 93.16%.

For CNC(C)C(O)c1ccccc1.Cl (stereo not drawn) [RACEPHEDRINE HYDROCHLORIDE], the residual activity [1] was 70.72% and the residual activity [2] was 103.1%.

Compound Cc1nc2ccccn2c(=O)c1CCN1CCC(C(=O)c2ccc(F)cc2)CC1 [PIRENPERONE] has a residual activity [1] of 93.87% and a residual activity [2] of 102.6%.

CC[N+](CC)(CC)CCOc1cccc(OCC[N+](CC)(CC)CC)c1OCC[N+](CC)(CC)CC.[I-].[I-].[I-] [GALLAMINE TRIETHIODIDE] gave a residual activity [1] of 91.38% and a residual activity [2] of 79.25%.

In the case of Cl.NCC(O)c1ccc(O)cc1 (stereo not drawn) [OCTOPAMINE HYDROCHLORIDE], the residual activity [1] is reported as 89.25% and the residual activity [2] is reported as 96.06%.

COc1cc2occc2c2oc(=O)ccc12 [ISOBERGAPTENE] was tested, and the residual activity [1] was 127.3% and the residual activity [2] was 113.9%.

NC(=O)c1cnccn1 [PYRAZINAMIDE] was tested, and the residual activity [1] was 79.24% and the residual activity [2] was 116.6%.

Work on CC(=O)O[C@@H]1C[C@H]2C(C)(C)C(=O)[C@H]3O[C@H]3[C@]2(C)[C@H]2CC[C@@]3(C)[C@H](c4ccoc4)OC(=O)[C@H]4O[C@]43[C@@]21C yielded a residual activity [1] of 58.52% and a residual activity [2] of 88.38%.

COc1ccc2c(C)cc(=O)oc2c1 [HYMECROMONE METHYL ETHER] gave a residual activity [1] of 109.2% and a residual activity [2] of 127.1%.

For CC1(C)C(=O)C=C[C@]2(C)[C@H]3CC[C@@]4(C)[C@H](c5ccoc5)OC(=O)[C@H]5O[C@]54[C@]3(C)C=C[C@@H]12, the residual activity [1] was 56.92% and the residual activity [2] was 75.29%.

Work on c1ccc2c(c1)sc1ccccc12 [DIBENZOTHIOPHENE] yielded a residual activity [1] of 114.7% and a residual activity [2] of 93.83%.

In the case of Cc1cc(O)c2c(c1)C(=O)c1cc(O)cc(O)c1C2=O [EMODIN], the residual activity [1] is reported as 135% and the residual activity [2] is reported as 119.5%.

Compound CC(=O)Oc1cccc(C(=O)O)c1OC(C)=O [DIPYROCETYL] has a residual activity [1] of 115.7% and a residual activity [2] of 102.1%.

Work on CC(C)c1ccc2c(c1)CC[C@H]1[C@](C)(C(N)=O)CCC[C@]21C [DEHYDROABIETAMIDE] yielded a residual activity [1] of 81.19% and a residual activity [2] of 106.2%.

Work on CCCCCCc1ccc(O)cc1O.Nc1c2ccccc2nc2ccccc12 [ACRISORCIN] yielded a residual activity [1] of 70.31% and a residual activity [2] of 120.2%.

Compound CC(C)[C@H](NC(=O)[C@H](Cc1ccc(O)cc1)NC(=O)[C@@H](NC(=O)C(F)(F)F)C(C)C)C(=O)O [Tfa-VAL-TYR-VAL-OH] (Tfa-Val-Tyr-Val-OH) has a residual activity [1] of 108% and a residual activity [2] of 96.81%.

Work on CCn1cc(C(=O)O)c(=O)c2cc(F)c(N3CCNCC3)cc21 [NORFLOXACIN] yielded a residual activity [1] of 97.94% and a residual activity [2] of 99.94%.

CC(=O)Oc1ccc(Cl)c2cccnc12 [CHLOROACETOXYQUINOLINE] was tested, and the residual activity [1] was 90.22% and the residual activity [2] was 92.5%.

Compound COc1cc(OC)cc(OC)c1 [1,3,5-TRIMETHOXYBENZENE] has a residual activity [1] of 90.48% and a residual activity [2] of 68.6%.

For CC(=O)OCC(COC(C)=O)OC(C)=O [TRIACETIN], the residual activity [1] was 98.2% and the residual activity [2] was 86.74%.

In the case of COc1ccc2[nH]cc(CCNC(C)=O)c2c1 [MELATONIN], the residual activity [1] is reported as 71.02% and the residual activity [2] is reported as 91.63%.

In the case of C#C[C@]1(O)CC[C@H]2[C@@H]3CCC4=CC(=O)CC[C@@H]4[C@H]3CC[C@@]21C [NORETHINDRONE], the residual activity [1] is reported as 91.27% and the residual activity [2] is reported as 109.8%.

In the case of Nc1ccc(C(=O)[O-])c(O)c1.O.O.[Na+] [AMINOSALICYLATE SODIUM], the residual activity [1] is reported as 75.75% and the residual activity [2] is reported as 88.86%.

With O=C1C=C2CC3(O)COc4c(ccc(O)c4O)C3=C2C=C1O (stereo not drawn) [HEMATEIN] the residual activity [1] was 65.79% and the residual activity [2] was 73.22%.

With CCN(CC)CCCC(C)Nc1c2ccc(Cl)cc2nc2ccc(OC)cc12.Cl.Cl.O.O (stereo not drawn) [QUINACRINE HYDROCHLORIDE] the residual activity [1] was 83.49% and the residual activity [2] was 95.69%.

With O=c1[nH]cc(F)c(=O)[nH]1 [FLUOROURACIL] the residual activity [1] was 86.84% and the residual activity [2] was 91.17%.

For C[C@]12CC[C@H](O)C[C@@H]1CC[C@@H]1[C@@H]2CC[C@]2(C)C(=O)CC[C@@H]12 [EPIANDROSTERONE], the residual activity [1] was 55.38% and the residual activity [2] was 91.34%.

Work on C[C@@H]1CC[C@@]2(OC1)O[C@H]1C[C@H]3[C@@H]4CC[C@H]5C[C@@H](O)CC[C@]5(C)[C@H]4CC[C@]3(C)[C@H]1[C@@H]2C [TIGOGENIN] yielded a residual activity [1] of 97% and a residual activity [2] of 106.8%.

With CCCCCC1C(=O)CCC1CC(=O)OC (stereo not drawn) [DIHYDROJASMONIC ACID, METHYL ESTER] the residual activity [1] was 109.5% and the residual activity [2] was 82.72%.

OCCN1C[C@H](O)[C@@H](O)[C@H](O)[C@H]1CO [MIGLITOL] gave a residual activity [1] of 99.55% and a residual activity [2] of 80.3%.

CCOP(=S)(OCC)Oc1nc(Cl)c(Cl)cc1Cl [CHLORPYRIFOS] showed a residual activity [1] of 140% and a residual activity [2] of 127.1%.

With CC12CCC3C(CC3(C)C)C(C)(CCC1=O)O2 (stereo not drawn) [3,7-EPOXYCARYOPHYLLAN-6-ONE] the residual activity [1] was 72.4% and the residual activity [2] was 93.4%.

O=S(=O)([O-])CCS.[Na+] [MESNA] showed a residual activity [1] of 95.36% and a residual activity [2] of 97.81%.

Compound Cc1ccc(-c2cc(C(F)(F)F)nn2-c2ccc(S(N)(=O)=O)cc2)cc1 [CELECOXIB] has a residual activity [1] of 108.3% and a residual activity [2] of 142.8%.

Cc1ccc(C(C)C)cc2c(C)ccc1-2 [GUAIAZULEN] was tested, and the residual activity [1] was 49.11% and the residual activity [2] was 50.28%.

In the case of CC1=C(O)C(=O)C=C2C1=CC=C1[C@@]2(C)CC[C@@]2(C)[C@@H]3C[C@](C)(C(=O)O)CC[C@]3(C)CC[C@]12C [CELASTROL], the residual activity [1] is reported as 147.4% and the residual activity [2] is reported as 90.72%.

With CCC[C@@H]1C[C@@H](C(=O)N[C@@H]([C@H]2O[C@H](SC)[C@H](O)[C@@H](O)[C@H]2O)[C@@H](C)O)N(C)C1.Cl.O [LINCOMYCIN HYDROCHLORIDE] the residual activity [1] was 83.01% and the residual activity [2] was 97.7%.

For Cn1cc[nH]c1=S [METHIMAZOLE], the residual activity [1] was 111.7% and the residual activity [2] was 105.6%.

Compound C=CCCCCCCCCCCCC(O)CC(O)CO (stereo in doubt; form 2) [AVOCADENE] has a residual activity [1] of 99.03% and a residual activity [2] of 104.3%.

In the case of CC(=O)Nc1nnc(S(N)(=O)=O)s1 [ACETAZOLAMIDE], the residual activity [1] is reported as 90.74% and the residual activity [2] is reported as 84.51%.

For Clc1ccc(C(c2ccccc2Cl)C(Cl)Cl)cc1 (stereo not drawn) [MITOTANE], the residual activity [1] was 107.6% and the residual activity [2] was 98.27%.

With Cc1cc(=O)[nH]c(=S)[nH]1 [METHYLTHIOURACIL] the residual activity [1] was 83.19% and the residual activity [2] was 80.5%.

COc1c(O)cc2c(c1O)[C@@H]1O[C@H](CO)[C@@H](O)[C@H](O)[C@H]1OC2=O [BERGENIN] was tested, and the residual activity [1] was 14.59% and the residual activity [2] was 94.52%.

CC(=O)OC1CCC23CC1(C)CCC2C(C)(C)CC3OC(C)=O (stereo not drawn) [CLOVANEDIOL DIACETATE] showed a residual activity [1] of 109.5% and a residual activity [2] of 85.3%.
